Measured values published in article PMC10649961, “Novel Mitochondria-Targeted Amphiphilic Aminophosphonium Salts and Lipids Nanoparticles: Synthesis, Antitumor Activity and Toxicity” (Nanomaterials, 2023).
Where two headings read alike, the source gives them in different places.

What was measured:
[1] = test system: MRSA-2; assay: Antimicrobial activity, serial microdilutions, MRSA-2; assay type: cell-based, S. aureus; conditions: Staphylococcus aureus; for MIC: read-out: Minimum Inhibitory Concentration (MIC); for MBC: read-out: Minimum bactericidal and fungicidal concentrations (MBC, MFC)
Method: (§1) The antimicrobial activity of test compounds was determined by serial microdilutions in 96-well plates using Mueller-Hinton broth for bacterial culture and Sabouraud broth for yeast culture. Cultures of Gram-positive bacteria were used in the experiment: Staphylococcus aureus ATCC 6538 P FDA 209P, Bacillus cereus ATCC 10702 NCTC 8035, Enterococcus faecalis ATCC 29212; Gram-negative bacteria: Escherichia coli ATCC 25922, Pseudomonas aeruginosa ATCC 9027; and yeast: Candida albicans ATCC 10231, purchased from the State Collection of Pathogenic Microorganisms and Cell Cultures “SCPM-Obolensk” (Obolensk, Russia). Methicillin-resistant strains of S. aureus (MRSA) were isolated from patients with chronic tonsillitis (MRSA-1) and sinusitis (MRSA-2) in the bacteriological laboratory of the Republican Clinical Hospital (Kazan, Russia). The experiments were carried out in triplicate.

[2] = test system: T98G
[3] = test system: Hep G2; assay: cells; conditions: Homo sapiens, HepG2, 48 h, read-out: Cytotoxic Effects (IC50)
[4] = test system: PANC-1
[5] = test system: M-HeLa; conditions: calculated relative to the cell line Chang liver (b)
[6] = test system: PANC-1; assay: cells; conditions: Homo sapiens, PANC-1, 48 h, read-out: Cytotoxic Effects (IC50)
[7] = test system: HuTu 80; assay: cells; conditions: Homo sapiens, HuTu80, 48 h, read-out: Cytotoxic Effects (IC50)
[8] = test system: A549; assay: cells; conditions: Homo sapiens, A549, 48 h, read-out: Cytotoxic Effects (IC50)
[9] = test system: Candida albicans ATCC 10231; assay: Antimicrobial activity, serial microdilutions, Ca; assay type: cell-based; set-up: key to Minimum Inhibitory Concentration (MIC) / Minimum bactericidal and fungicidal concentrations (MBC, MFC): – means non-active; conditions: for MIC: read-out: Minimum Inhibitory Concentration (MIC)
Method: as §1

[10] = test system: Staphylococcus aureus ATCC 6538 P FDA 209P; assay: Antimicrobial activity, serial microdilutions, Sa; assay type: cell-based; conditions: Staphylococcus aureus; for MIC: read-out: Minimum Inhibitory Concentration (MIC); for MBC: read-out: Minimum bactericidal and fungicidal concentrations (MBC, MFC)
Method: as §1

[11] = test system: Escherichia coli ATCC 25922; assay: Antimicrobial activity, serial microdilutions, Ec; assay type: cell-based; conditions: Escherichia coli; for MIC: ATCC25922, read-out: Minimum Inhibitory Concentration (MIC); for MBC: ATCC25922, read-out: Minimum bactericidal and fungicidal concentrations (MBC, MFC)
Method: as §1

[12] = test system: Pseudomonas aeruginosa ATCC 9027; assay: Antimicrobial activity, serial microdilutions, Pa; assay type: cell-based; set-up: key to Minimum Inhibitory Concentration (MIC) / Minimum bactericidal and fungicidal concentrations (MBC, MFC): – means non-active; conditions: for MIC / MBC: Pseudomonas aeruginosa; for MIC: ATCC9027, read-out: Minimum Inhibitory Concentration (MIC); for MBC: ATCC9027, read-out: Minimum bactericidal and fungicidal concentrations (MBC, MFC)
Method: as §1

[13] = test system: Bacillus cereus ATCC 10702 NCTC 8035; assay: Antimicrobial activity, serial microdilutions, Bc; assay type: cell-based; conditions: Bacillus cereus; for MIC: Bc, read-out: Minimum Inhibitory Concentration (MIC); for MBC: read-out: Minimum bactericidal and fungicidal concentrations (MBC, MFC)
Method: as §1

[14] = test system: PC3
[15] = test system: MCF-7
[16] = test system: Hep G2
[17] = test system: Enterococcus faecalis ATCC 29212; assay: Antimicrobial activity, serial microdilutions, Ef; assay type: cell-based; set-up: key to Minimum Inhibitory Concentration (MIC) / Minimum bactericidal and fungicidal concentrations (MBC, MFC): – means non-active; conditions: for MIC / MBC: Enterococcus faecalis; for MIC: ATCC29212, read-out: Minimum Inhibitory Concentration (MIC); for MBC: ATCC29212, read-out: Minimum bactericidal and fungicidal concentrations (MBC, MFC)
Method: as §1

[18] = test system: PC3; assay: cells; conditions: Homo sapiens, PC-3, 48 h, read-out: Cytotoxic Effects (IC50), PC3, MTT assay, 48 h
[19] = test system: T98G; assay: cells; conditions: Homo sapiens, 48 h, read-out: Cytotoxic Effects (IC50)
[20] = test system: MCF-7; assay: cells; conditions: Homo sapiens, MCF7, 48 h, read-out: Cytotoxic Effects (IC50)
[21] = test system: MRSA-1; assay: Antimicrobial activity, serial microdilutions, MRSA-1; assay type: cell-based, S. aureus; conditions: Staphylococcus aureus; for MIC: read-out: Minimum Inhibitory Concentration (MIC); for MBC: read-out: Minimum bactericidal and fungicidal concentrations (MBC, MFC)
Method: as §1

[22] = test system: SK-OV-3; assay: cells; conditions: Homo sapiens, SK-OV-3, 48 h, read-out: Cytotoxic Effects (IC50)
[23] = test system: SK-OV-3
[24] = test system: HuTu 80
[25] = test system: A549
[26] = test system: M-HeLa; assay: cells; conditions: Homo sapiens, 48 h, read-out: Cytotoxic Effects (IC50)
[27] = test system: DU-145; assay: cells; conditions: Homo sapiens, DU-145, 48 h, read-out: Cytotoxic Effects (IC50), DU-145, MTT assay, 48 h
[28] = test system: DU-145
[29] = calculated relative to the cell line Chang liver (b)
[30] = reference normal cell line not marked at the place (ns cells)
[31] = calculated relative to the cell line WI38 (a)

Structure (SMILES)	MIC [1] [µM]	MBC [1] [µM]	IC50 [3] [nM]	IC50 [6] [nM]	IC50 [7] [nM]	IC50 [8] [nM]	MIC [10] [µM]	MBC [10] [µM]	MIC [11] [µM]	MBC [11] [µM]	MIC [13] [µM]	MBC [13] [µM]	MIC [17] [µM]	IC50 [18] [nM]	IC50 [19] [nM]	IC50 [20] [nM]	MIC [21] [µM]	MBC [21] [µM]	IC50 [22] [nM]	IC50 [26] [nM]	further results
CCCCCCCCC[P+](N(CC)CC)(N(CC)CC)N(CC)CC [4c, Tris(diethylamino)(nonyl)phosphonium iodide]	7.8 ± 0.6	250 ± 20	2400 ± 100	1700 ± 100	2600 ± 200	21100 ± 1500	3.9 ± 0.3	250 ± 18	500 ± 48	500 ± 48	3.9 ± 0.3	> 500	62.5 ± 5.2	1800 ± 100	3200 ± 200	1900 ± 100	3.9 ± 0.4	125 ± 10	12100 ± 1100	1700 ± 100	selectivity index (SI) [2, 29]: 1.5; selectivity index (SI) [4, 29]: 2.8; selectivity index (SI) [5]: 2.8; Minimum Inhibitory Concentration (MIC) ([9]; Ca): –; Minimum bactericidal and fungicidal concentrations (MBC, MFC) ([9]; Ca): –; Minimum Inhibitory Concentration (MIC) [12]: –; Minimum bactericidal and fungicidal concentrations (MBC, MFC) [12]: –; selectivity index (SI) [14, 29]: 2.7; selectivity index (SI) [15, 29]: 2.5; selectivity index (SI) [16, 29]: 2.0; MBC [17]: 500 ± 48 µM; selectivity index (SI) [23, 30]: ns (ns—no selectivity); selectivity index (SI) [24, 29]: 1.8; selectivity index (SI) [25, 30]: ns (ns—no selectivity)
CCCCCCCCCCCCCC[P+](N(CC)CC)(N(CC)CC)N(CC)CC [4e, Tris(diethylamino)(tetradecyl)phosphonium bromide]	0.25 ± 0.02	0.25 ± 0.02	1500 ± 100	400 ± 30	60 ± 5	1700 ± 100	0.25 ± 0.01	0.9 ± 0.07	15.6 ± 1.3	62.5 ± 5.2	0.5 ± 0.04	7.8 ± 0.6	0.5 ± 0.04	1700 ± 100	1000 ± 90	900 ± 70	0.5 ± 0.04	0.5 ± 0.04	1700 ± 100	400 ± 30	selectivity index (SI) [2, 29]: 1.7; selectivity index (SI) [4, 29]: 4.3; selectivity index (SI) [5]: 4.3; IC50 [27]: 400 ± 30 nM; MIC ([9]; Candida albicans, ATCC10231): 1.9 ± 0.1 µM; MBC ([9]; Candida albicans, ATCC10231, read-out: Minimum bactericidal and fungicidal concentrations (MBC, MFC)): 7.8 ± 0.6 µM; MIC [12]: 7.8 ± 0.6 µM; MBC [12]: 7.8 ± 0.6 µM; selectivity index (SI) [14, 29]: 1.0; selectivity index (SI) [15, 29]: 1.9; selectivity index (SI) [16, 29]: 1.1; MBC [17]: 1.9 ± 0.1 µM; selectivity index (SI) [28, 29]: 4.3; selectivity index (SI) [23, 29]: 1.0; selectivity index (SI) [24, 29]: 28; selectivity index (SI) [25, 29]: 1.0
CCCCCCCCC[P+](c1ccccc1)(c1ccccc1)N(CC)CC [6c, (Diethylamino)(nonyl)diphenylphosphonium iodide]	3.9 ± 0.4	7.8 ± 0.7	6200 ± 500	1300 ± 100	200 ± 10	11400 ± 900	3.9 ± 0.3	125 ± 11	500 ± 46	500 ± 47	1.9 ± 0.1	> 500	31.3 ± 5.4	1000 ± 80	2400 ± 100	4200 ± 300	3.9 ± 0.3	62.5 ± 5.4	12700 ± 1100	900 ± 70	selectivity index (SI) [2, 31]: 3.5; selectivity index (SI) [4, 31]: 6.4; IC50 [27]: 1300 ± 100 nM; Minimum bactericidal and fungicidal concentrations (MBC, MFC) ([9]; Ca): –; MIC ([9]; Candida albicans, ATCC10231): 500 ± 47 µM; MIC [12]: 250 ± 21 µM; MBC [12]: 250 ± 21 µM; selectivity index (SI) [14, 31]: 8.3; selectivity index (SI) [15, 31]: 2.0; selectivity index (SI) [16, 31]: 1.3; Minimum bactericidal and fungicidal concentrations (MBC, MFC) [17]: –; selectivity index (SI) [28, 31]: 6.4; selectivity index (SI) [23, 30]: ns (ns—no selectivity); selectivity index (SI) [24, 31]: 42; selectivity index (SI) [25, 30]: ns (ns—no selectivity)
